Source: PMC10382584, “Macrocyclization of linear molecules by deep learning to facilitate macrocyclic drug candidates discovery” (Nature Communications, 2023)

Key:
Assay in all cases: biochemical
Design in all cases: DiscoveRx KINOMEscan competition binding, percent of DMSO control signal at 100 nM
Conditions in all cases: read-out: Fig. 4a / Percent Control / Compound 1; percent of DMSO control, competition binding
NDR2 = molecular target: T1, NDR2 (Homo sapiens, UniProt Q9Y2H1)
T1 construct: gene STK38L

AAK1 = AAK1 (Homo sapiens, UniProt Q2M2I8)
AAK1, sequence (Q2M2I8 whole entry): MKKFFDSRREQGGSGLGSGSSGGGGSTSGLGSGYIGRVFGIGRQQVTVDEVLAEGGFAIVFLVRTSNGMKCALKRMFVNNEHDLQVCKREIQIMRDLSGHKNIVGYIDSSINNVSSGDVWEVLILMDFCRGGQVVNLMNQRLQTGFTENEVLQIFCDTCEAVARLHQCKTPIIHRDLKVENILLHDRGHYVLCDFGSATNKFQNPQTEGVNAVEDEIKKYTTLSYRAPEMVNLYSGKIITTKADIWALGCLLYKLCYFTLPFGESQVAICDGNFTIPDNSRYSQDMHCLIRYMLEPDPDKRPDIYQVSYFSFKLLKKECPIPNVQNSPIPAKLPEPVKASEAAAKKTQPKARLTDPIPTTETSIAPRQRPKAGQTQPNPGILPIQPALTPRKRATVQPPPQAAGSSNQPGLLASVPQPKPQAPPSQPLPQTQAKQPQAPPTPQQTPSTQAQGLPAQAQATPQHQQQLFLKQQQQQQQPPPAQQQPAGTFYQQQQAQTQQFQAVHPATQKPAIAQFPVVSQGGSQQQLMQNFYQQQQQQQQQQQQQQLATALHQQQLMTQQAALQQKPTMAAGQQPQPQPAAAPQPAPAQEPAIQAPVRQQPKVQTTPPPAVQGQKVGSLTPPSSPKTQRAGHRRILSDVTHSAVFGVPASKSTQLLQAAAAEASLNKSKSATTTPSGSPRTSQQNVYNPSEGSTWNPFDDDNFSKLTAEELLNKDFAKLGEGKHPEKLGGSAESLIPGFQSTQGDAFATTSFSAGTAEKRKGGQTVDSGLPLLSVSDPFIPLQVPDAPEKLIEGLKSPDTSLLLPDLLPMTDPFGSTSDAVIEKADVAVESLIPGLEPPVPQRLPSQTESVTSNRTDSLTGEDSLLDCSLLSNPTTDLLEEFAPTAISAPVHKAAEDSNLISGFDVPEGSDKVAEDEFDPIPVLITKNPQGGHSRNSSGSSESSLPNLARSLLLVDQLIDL

BMPR1A = BMPR1A (Homo sapiens, UniProt P36894)
[1] = molecular target: T2, RSK4(Kin.Dom.2-C-terminal) (Homo sapiens, UniProt Q9UK32)
T2 construct: gene RPS6KA6; Kin.Dom.2-C-terminal

SBK1 = SBK1 (Homo sapiens, UniProt Q52WX2)
GAK = GAK (Homo sapiens, UniProt O14976)
CDK7 = CDK7 (Homo sapiens, UniProt P50613)
ROCK1 = ROCK1 (Homo sapiens, UniProt Q13464)
[2] = molecular target: T3, JAK1(JH1domain-catalytic) (Homo sapiens, UniProt P23458)
T3 construct: JH1domain-catalytic
T3 sequence (P23458 whole entry): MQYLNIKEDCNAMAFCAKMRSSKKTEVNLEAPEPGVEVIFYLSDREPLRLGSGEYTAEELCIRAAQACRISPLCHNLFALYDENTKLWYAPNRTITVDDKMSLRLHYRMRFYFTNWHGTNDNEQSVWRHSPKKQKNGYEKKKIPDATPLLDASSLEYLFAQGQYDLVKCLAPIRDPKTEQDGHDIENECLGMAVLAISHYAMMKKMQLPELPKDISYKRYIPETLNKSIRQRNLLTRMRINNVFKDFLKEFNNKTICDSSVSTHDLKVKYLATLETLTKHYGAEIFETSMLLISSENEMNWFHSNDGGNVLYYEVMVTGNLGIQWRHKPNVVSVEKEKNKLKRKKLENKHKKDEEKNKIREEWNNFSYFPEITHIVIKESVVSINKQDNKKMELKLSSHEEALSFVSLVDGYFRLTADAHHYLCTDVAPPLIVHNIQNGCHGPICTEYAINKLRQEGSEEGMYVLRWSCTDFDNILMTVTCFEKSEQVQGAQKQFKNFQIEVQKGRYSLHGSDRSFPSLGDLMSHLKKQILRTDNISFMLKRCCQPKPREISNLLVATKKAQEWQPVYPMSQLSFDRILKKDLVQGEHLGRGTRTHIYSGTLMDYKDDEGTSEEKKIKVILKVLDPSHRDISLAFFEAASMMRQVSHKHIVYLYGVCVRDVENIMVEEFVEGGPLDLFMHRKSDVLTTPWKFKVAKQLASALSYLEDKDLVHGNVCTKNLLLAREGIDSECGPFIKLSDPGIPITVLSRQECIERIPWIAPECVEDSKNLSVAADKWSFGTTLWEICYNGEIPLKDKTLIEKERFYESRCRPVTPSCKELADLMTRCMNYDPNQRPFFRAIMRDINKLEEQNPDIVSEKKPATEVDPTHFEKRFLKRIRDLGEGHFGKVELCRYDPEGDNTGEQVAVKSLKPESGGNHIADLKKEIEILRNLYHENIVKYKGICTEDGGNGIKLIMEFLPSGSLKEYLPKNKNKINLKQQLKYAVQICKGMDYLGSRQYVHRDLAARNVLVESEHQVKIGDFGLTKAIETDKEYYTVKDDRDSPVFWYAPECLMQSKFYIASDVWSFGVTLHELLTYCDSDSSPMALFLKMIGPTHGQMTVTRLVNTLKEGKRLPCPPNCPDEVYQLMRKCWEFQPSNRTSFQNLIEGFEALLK

PIP5K1C = PIP5K1C (Homo sapiens, UniProt O60331)
NIM1 = molecular target: T4, NIM1 (Homo sapiens, UniProt Q8IY84)
T4 construct: gene NIM1K

TESK1 = TESK1 (Homo sapiens, UniProt Q15569)
RIPK4 = RIPK4 (Homo sapiens, UniProt P57078)
PIKFYVE = PIKFYVE (Homo sapiens, UniProt Q9Y2I7)
RAF1 = RAF1 (Homo sapiens, UniProt P04049)
TAOK3 = TAOK3 (Homo sapiens, UniProt Q9H2K8)
TAOK3, sequence (Q9H2K8 whole entry): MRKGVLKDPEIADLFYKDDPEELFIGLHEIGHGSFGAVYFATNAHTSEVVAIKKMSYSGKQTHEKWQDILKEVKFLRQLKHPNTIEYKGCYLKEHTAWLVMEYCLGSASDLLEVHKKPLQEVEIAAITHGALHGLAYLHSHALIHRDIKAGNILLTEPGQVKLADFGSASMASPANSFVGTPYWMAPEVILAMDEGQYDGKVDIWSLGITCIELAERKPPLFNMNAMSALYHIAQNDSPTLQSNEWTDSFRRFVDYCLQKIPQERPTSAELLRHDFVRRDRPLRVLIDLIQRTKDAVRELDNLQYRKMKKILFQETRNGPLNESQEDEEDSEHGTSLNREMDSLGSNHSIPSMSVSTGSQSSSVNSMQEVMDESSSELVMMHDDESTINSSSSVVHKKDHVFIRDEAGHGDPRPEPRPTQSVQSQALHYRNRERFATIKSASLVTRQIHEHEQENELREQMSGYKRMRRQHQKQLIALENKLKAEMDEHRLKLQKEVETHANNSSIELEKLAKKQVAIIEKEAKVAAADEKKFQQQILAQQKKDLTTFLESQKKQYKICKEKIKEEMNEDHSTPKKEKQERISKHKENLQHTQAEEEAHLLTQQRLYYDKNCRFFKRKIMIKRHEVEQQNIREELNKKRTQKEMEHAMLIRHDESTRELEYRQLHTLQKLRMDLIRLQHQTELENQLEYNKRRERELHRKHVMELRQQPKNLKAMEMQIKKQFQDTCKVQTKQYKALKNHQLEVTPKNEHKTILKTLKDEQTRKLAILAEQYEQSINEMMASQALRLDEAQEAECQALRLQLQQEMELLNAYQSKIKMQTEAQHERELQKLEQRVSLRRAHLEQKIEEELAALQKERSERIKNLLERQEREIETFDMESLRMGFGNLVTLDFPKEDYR

p38-delta = molecular target: T5, p38-delta (Homo sapiens, UniProt O15264)
T5 construct: gene MAPK13
T5 sequence (O15264 whole entry): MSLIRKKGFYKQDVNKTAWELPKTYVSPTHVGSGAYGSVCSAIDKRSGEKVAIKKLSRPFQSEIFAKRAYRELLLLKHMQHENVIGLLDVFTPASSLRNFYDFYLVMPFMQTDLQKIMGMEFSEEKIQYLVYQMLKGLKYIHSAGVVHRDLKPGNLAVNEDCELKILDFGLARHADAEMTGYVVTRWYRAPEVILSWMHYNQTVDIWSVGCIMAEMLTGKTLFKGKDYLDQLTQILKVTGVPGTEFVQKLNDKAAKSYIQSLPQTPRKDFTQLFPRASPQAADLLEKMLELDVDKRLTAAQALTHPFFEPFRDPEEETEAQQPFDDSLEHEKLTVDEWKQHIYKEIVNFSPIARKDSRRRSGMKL

PDGFRA = PDGFRA (Homo sapiens, UniProt P16234)
CDC2L5 = molecular target: T6, CDC2L5 (Homo sapiens, UniProt Q14004)
T6 construct: gene CDK13

AURKA = AURKA (Homo sapiens, UniProt O14965)
AURKA, sequence (O14965 whole entry): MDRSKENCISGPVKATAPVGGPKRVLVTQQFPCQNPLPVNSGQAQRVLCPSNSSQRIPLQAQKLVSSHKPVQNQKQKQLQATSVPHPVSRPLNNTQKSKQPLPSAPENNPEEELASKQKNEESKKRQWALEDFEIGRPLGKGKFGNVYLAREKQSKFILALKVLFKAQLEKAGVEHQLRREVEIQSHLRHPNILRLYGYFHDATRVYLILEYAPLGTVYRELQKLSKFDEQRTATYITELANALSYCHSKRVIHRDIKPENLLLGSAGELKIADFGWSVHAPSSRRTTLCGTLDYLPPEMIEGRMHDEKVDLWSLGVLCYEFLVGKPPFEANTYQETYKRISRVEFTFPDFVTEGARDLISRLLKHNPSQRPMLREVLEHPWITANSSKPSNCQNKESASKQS

CSNK1G1 = CSNK1G1 (Homo sapiens, UniProt Q9HCP0)
CSNK1G1, sequence (Q9HCP0 whole entry): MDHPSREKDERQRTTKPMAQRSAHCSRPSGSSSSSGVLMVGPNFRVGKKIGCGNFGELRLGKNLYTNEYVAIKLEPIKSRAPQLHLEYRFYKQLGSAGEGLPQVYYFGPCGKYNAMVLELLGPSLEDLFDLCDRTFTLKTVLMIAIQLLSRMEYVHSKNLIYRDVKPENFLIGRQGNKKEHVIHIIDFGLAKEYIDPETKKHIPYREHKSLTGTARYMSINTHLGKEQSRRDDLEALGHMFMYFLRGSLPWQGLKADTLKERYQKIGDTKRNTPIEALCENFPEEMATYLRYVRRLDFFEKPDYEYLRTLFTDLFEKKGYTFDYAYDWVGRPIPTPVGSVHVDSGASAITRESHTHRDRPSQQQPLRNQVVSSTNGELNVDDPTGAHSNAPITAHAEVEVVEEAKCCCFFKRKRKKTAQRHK

[3] = molecular target: T7, ABL1(Y253F)-phosphorylated (Homo sapiens, UniProt P00519, Y253F)
T7 construct: phosphorylated

BTK = BTK (Homo sapiens, UniProt Q06187)
BTK, sequence (Q06187 whole entry): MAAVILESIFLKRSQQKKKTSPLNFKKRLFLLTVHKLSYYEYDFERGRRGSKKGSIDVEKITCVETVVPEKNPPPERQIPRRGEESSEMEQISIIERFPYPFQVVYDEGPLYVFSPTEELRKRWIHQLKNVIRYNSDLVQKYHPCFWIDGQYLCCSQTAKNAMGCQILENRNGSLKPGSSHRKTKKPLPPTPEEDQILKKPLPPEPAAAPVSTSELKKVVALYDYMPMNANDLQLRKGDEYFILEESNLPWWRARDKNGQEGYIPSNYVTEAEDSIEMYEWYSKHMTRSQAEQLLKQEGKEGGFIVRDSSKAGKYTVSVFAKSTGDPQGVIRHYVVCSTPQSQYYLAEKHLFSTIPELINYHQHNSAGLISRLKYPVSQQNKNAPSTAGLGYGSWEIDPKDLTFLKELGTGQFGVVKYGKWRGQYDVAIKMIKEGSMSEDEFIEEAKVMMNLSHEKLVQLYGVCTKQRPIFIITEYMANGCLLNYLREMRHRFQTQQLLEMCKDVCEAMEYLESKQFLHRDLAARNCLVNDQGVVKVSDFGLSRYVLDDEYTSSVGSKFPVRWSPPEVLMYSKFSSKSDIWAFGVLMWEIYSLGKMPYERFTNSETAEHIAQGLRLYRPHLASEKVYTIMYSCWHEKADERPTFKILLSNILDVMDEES

VEGFR2 = molecular target: T8, VEGFR2 (Homo sapiens, UniProt P35968)
T8 construct: gene KDR

FLT3-autoinhibited = FLT3-autoinhibited (Homo sapiens, UniProt P36888)
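Further: KINOMEscan kinase panel binding assay, signal normalized between DMSO as 100% and a positive control compound as 0%.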

Compound Cc1cnc2nc1Nc1cccc(c1)COCc1cc(ccc1OCCN1CCCC1)N2 [Compound 1] has a remaining binding at 0.1 µM (NDR2) of 92%, a remaining binding at 0.1 µM (AAK1) of 81% and a remaining binding at 0.1 µM (BMPR1A) of 97%. The remaining binding at 0.1 µM [1] was 96%, the remaining binding at 0.1 µM (SBK1) was 57% and the remaining binding at 0.1 µM (GAK) was 36%. The remaining binding at 0.1 µM (CDK7) was 77%, the remaining binding at 0.1 µM (ROCK1) was 88% and the remaining binding at 0.1 µM [2] was 32%. It also gave a remaining binding at 0.1 µM (PIP5K1C) of 66%, a remaining binding at 0.1 µM (NIM1) of 99% and a remaining binding at 0.1 µM (TESK1) of 85%. It also gave a remaining binding at 0.1 µM (RIPK4) of 65%, a remaining binding at 0.1 µM (PIKFYVE) of 100% and a remaining binding at 0.1 µM (RAF1) of 98%. For the same compound, the remaining binding at 0.1 µM (TAOK3) was 56%, the remaining binding at 0.1 µM (p38-delta) was 100% and the remaining binding at 0.1 µM (PDGFRA) was 73%. It also gave a remaining binding at 0.1 µM (CDC2L5) of 81%, a remaining binding at 0.1 µM (AURKA) of 38% and a remaining binding at 0.1 µM (CSNK1G1) of 91%. It also gave a remaining binding at 0.1 µM [3] of 64%, a remaining binding at 0.1 µM (BTK) of 86% and a remaining binding at 0.1 µM (VEGFR2) of 63%. The remaining binding at 0.1 µM (FLT3-autoinhibited) was 48%.
